Laboratory results from patent US11071731B2, “Allosteric modulators of the mu opioid receptor” (Chiromics, LLC, priority 2017, dated 2021).

Assays:
mu opioid receptor (MOR) [1] = molecular target: T1, mu opioid receptor (MOR) (Homo sapiens, UniProt P35372); assay: PathHunter β-arrestin recruitment assay, PAM mode with EC20 endomorphin-1; format: cell-based
Procedure, shortened: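 β-Arrestin recruitment to the receptor was tracked by chemiluminescent β-galactosidase activity from complementing fragments (ED on receptor, EA on β-arrestin). Per-compound outputs were EC50 and percent maximal response.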

mu opioid receptor (MOR) [2] = molecular target: T1, mu opioid receptor (MOR); assay: Hit Hunter cAMP signaling assay (adenylyl cyclase inhibition), PAM mode with EC20 endomorphin-1; format: cell-based
[3] = maximal response for β-arrestin recruitment
[4] = β-arrestin recruitment, read-out: β-arr. EC50
[5] = cAMP EC50, adenylyl cyclase inhibition
[6] = maximal response for adenylyl cyclase inhibition
[7] = adenylyl cyclase inhibition, read-out: cAMP EC50

T1 sequence (P35372 whole entry, the tested form may be a part): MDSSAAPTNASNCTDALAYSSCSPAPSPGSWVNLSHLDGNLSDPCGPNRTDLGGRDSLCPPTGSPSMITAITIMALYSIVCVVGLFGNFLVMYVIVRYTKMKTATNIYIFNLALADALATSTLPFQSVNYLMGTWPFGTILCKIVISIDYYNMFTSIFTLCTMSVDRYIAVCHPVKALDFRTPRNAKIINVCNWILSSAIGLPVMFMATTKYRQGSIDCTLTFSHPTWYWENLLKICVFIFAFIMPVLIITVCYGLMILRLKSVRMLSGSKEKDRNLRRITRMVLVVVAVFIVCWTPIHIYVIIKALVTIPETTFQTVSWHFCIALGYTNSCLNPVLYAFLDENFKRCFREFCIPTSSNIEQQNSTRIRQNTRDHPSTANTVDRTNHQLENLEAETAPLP

| Compound | β-arr Max. Resp. (mu opioid receptor (MOR) [1]; [3]) | EC50 (mu opioid receptor (MOR) [1]; [4]) | EC50 (mu opioid receptor (MOR) [2]; [5]) | cAMP Max. Resp. (mu opioid receptor (MOR) [2]; [6]) | EC50 (mu opioid receptor (MOR) [2]; [7]) | EC50 (mu opioid receptor (MOR) [1]; β-arr. EC50, β-arrestin recruitment) | EC50 (mu opioid receptor (MOR) [2]) | β-arr Max. Resp. (mu opioid receptor (MOR) [1]; maximal response, β-arrestin recruitment) | cAMP Max. Resp. (mu opioid receptor (MOR) [2]; maximal response, adenylyl cyclase inhibition) |
| --- | --- | --- | --- | --- | --- | --- | --- | --- | --- |
| COc1ccc(C2CCCCN2S(C)(=O)=O)cc1Br (centres unmarked) [compound 16] | D (D represents a maximal response of < 40%) | > 2100 nM | > 2100 nM | D (D represents a maximal response of < 40%) | – | – | – | – | – |
| O=S(=O)(c1ccc(Cl)cc1)N1CCCCC1c1ccc(Cl)c(C(F)(F)F)c1 (racemic) [compound 64] | F (F represents a maximal response of > 60%) | 700 to 2100 nM | – | D (D represents a maximal response of < 40%) | 700 to 2100 nM | – | – | – | – |
| Fc1ccc(C2CC(F)(F)CCN2c2nc(Cl)ncc2F)cc1Br (centres unmarked) [compound 246] | F (F represents a maximal response of > 60%) | 700 to 2100 nM | 700 to 2100 nM | D (D represents a maximal response of < 40%) | – | – | – | – | – |
| Fc1cnc(Cl)nc1N1CCCCC1c1cccc(Cl)c1 (centres unmarked) [compound 285] | F (F represents a maximal response of > 60%) | 700 to 2100 nM | > 2100 nM | E (E represents a maximal response of 40-60%) | – | – | – | – | – |
| Fc1cc(C2CCC(F)CN2c2nc(Cl)ncc2F)cc(C(F)(F)F)c1 (centres unmarked) [compound 312] | F (F represents a maximal response of > 60%) | < 700 nM | – | F (F represents a maximal response of > 60%) | < 700 nM | – | – | – | – |
| COc1ccc(C2CC(C(F)(F)F)CN2S(=O)(=O)c2ccc(Cl)cc2)cc1Br (single isomer, unassigned) [Compound 119] | E (E represents a maximal response of 40-60%) | > 2100 nM | – | D (D represents a maximal response of < 40%) | > 2100 nM | – | – | – | – |
| Fc1ccc(C2C3CCC(C3)N2Cc2cc(Cl)ccc2F)cc1Cl (centres unmarked) [compound 217] | F (F represents a maximal response of > 60%) | – | – | D (D represents a maximal response of < 40%) | – | 700 to 2100 nM | > 2100 nM | – | – |
| Fc1c(N2CCCCC2c2cccc(C(F)(F)F)c2)ccnc1Cl (centres unmarked) [compound 402] | D (D represents a maximal response of < 40%) | < 700 nM | < 700 nM | D (D represents a maximal response of < 40%) | – | – | – | – | – |
| Fc1cc(C2CC(F)CCN2c2nc(Cl)ncc2F)cc(C(F)(F)F)c1 (centres unmarked) [compound 196] | F (F represents a maximal response of > 60%) | < 700 nM | < 700 nM | F (F represents a maximal response of > 60%) | – | – | – | – | – |
| O=S(=O)(c1cccc(Cl)c1)N1CCCC(F)C1c1ccc(F)c(Br)c1 (centres unmarked) [Compound 32] | – | > 2100 nM | – | – | > 2100 nM | – | – | – | – |
| Cc1ncc(Cl)c(C2CCCCN2c2nc(Cl)ncc2F)n1 (centres unmarked) [compound 392] | D (D represents a maximal response of < 40%) | < 700 nM | < 700 nM | D (D represents a maximal response of < 40%) | – | – | – | – | – |
| Fc1ccc(C2CSCCN2c2nc(Cl)ncc2F)cc1Cl (centres unmarked) [Compound 460] | – | > 2100 nM | – | – | > 2100 nM | – | – | F (F represents a maximal response of > 60%) | F (F represents a maximal response of > 60%) |
| Fc1ccc(C2CCCCN2c2nc(Cl)ncc2F)nc1 (centres unmarked) [compound 372] | D (D represents a maximal response of < 40%) | < 700 nM | < 700 nM | D (D represents a maximal response of < 40%) | – | – | – | – | – |
| [2H]C1(c2ccc(F)c(Br)c2)C(F)CCCN1S(=O)(=O)c1ccc(Cl)cc1F (centres unmarked) [Compound 37] | F (F represents a maximal response of > 60%) | – | – | D (D represents a maximal response of < 40%) | – | – | – | – | – |
| Fc1ccc(Cl)nc1C1CCCCN1c1nc(Cl)ncc1F (centres unmarked) [compound 388] | D (D represents a maximal response of < 40%) | < 700 nM | < 700 nM | D (D represents a maximal response of < 40%) | – | – | – | – | – |
| Fc1ccc(Cl)cc1CN1CCCCC1c1cccc(OC(F)(F)F)n1 (centres unmarked) [compound 169] | F (F represents a maximal response of > 60%) | < 700 nM | < 700 nM | F (F represents a maximal response of > 60%) | – | – | – | – | – |
| Fc1cnc(Cl)nc1N1CCCCC1c1ccnc(Cl)c1 (centres unmarked) [compound 328] | D (D represents a maximal response of < 40%) | < 700 nM | < 700 nM | D (D represents a maximal response of < 40%) | – | – | – | – | – |
| COc1ncc(N2CCCCC2c2cccc(F)n2)c(F)n1 (centres unmarked) [compound 296] | D (D represents a maximal response of < 40%) | > 2100 nM | – | D (D represents a maximal response of < 40%) | > 2100 nM | – | – | – | – |
| COc1ncc(F)c(N2CCCCC2c2ccc(OC)c(Br)c2)n1 (centres unmarked) [compound 225] | F (F represents a maximal response of > 60%) | > 2100 nM | > 2100 nM | F (F represents a maximal response of > 60%) | – | – | – | – | – |
| Fc1cnc(Cl)nc1N1CCCCC1c1nc2ccccc2s1 (centres unmarked) [compound 340] | D (D represents a maximal response of < 40%) | < 700 nM | < 700 nM | D (D represents a maximal response of < 40%) | – | – | – | – | – |
| Fc1c(Cl)cccc1CN1CCCCC1c1cccc(C(F)(F)F)n1 (centres unmarked) [compound 172] | F (F represents a maximal response of > 60%) | 700 to 2100 nM | < 700 nM | E (E represents a maximal response of 40-60%) | – | – | – | – | – |
| Fc1ccc(C2CCCCN2c2nc(Cl)ncc2F)cc1F (centres unmarked) [compound 129] | F (F represents a maximal response of > 60%) | < 700 nM | 700 to 2100 nM | E (E represents a maximal response of 40-60%) | – | – | – | – | – |
| Fc1cc(Cl)cc(CN2CCCCC2c2ccc(F)c(Cl)c2)c1 (centres unmarked) [compound 155] | F (F represents a maximal response of > 60%) | 700 to 2100 nM | 700 to 2100 nM | D (D represents a maximal response of < 40%) | – | – | – | – | – |
| Fc1c(C2CCCCN2c2ccnc(Cl)n2)cccc1C(F)(F)F (centres unmarked) [compound 365] | D (D represents a maximal response of < 40%) | < 700 nM | < 700 nM | D (D represents a maximal response of < 40%) | – | – | – | – | – |
| [2H]C1(c2cccc(C(F)(F)F)c2)C(F)CCCN1c1nc(Cl)ncc1F (single isomer, unassigned) [compound 209] | F (F represents a maximal response of > 60%) | 700 to 2100 nM | – | D (D represents a maximal response of < 40%) | – | – | – | – | – |
| Cc1nccc(C2CCCCN2c2nc(Cl)ncc2F)n1 (centres unmarked) [compound 377] | D (D represents a maximal response of < 40%) | < 700 nM | < 700 nM | D (D represents a maximal response of < 40%) | – | – | – | – | – |
| FC(F)(F)c1cccc(C2CCCCN2c2ccnc(Cl)c2)c1 (centres unmarked) [compound 359] | D (D represents a maximal response of < 40%) | < 700 nM | < 700 nM | D (D represents a maximal response of < 40%) | – | – | – | – | – |
| C=C1CCN(c2nc(Cl)ncc2F)C(c2cc(F)cc(C(F)(F)F)c2)C1 (centres unmarked) [compound 200] | F (F represents a maximal response of > 60%) | < 700 nM | < 700 nM | E (E represents a maximal response of 40-60%) | – | – | – | – | – |
